In PubChem BioAssay AID1581:
Records with an inconclusive call do not appear.

Target: PAR-4 (PAWR) - atypical PKC interaction
Assay: inhibitors of PAWR-atypical PKC interaction (AID 1581)
Conditions: PAR4-aPKC protein interaction assay, normalized signal

Row | SMILES | EC50 [µM]
1 | CO[C@@]1(NC(=O)C(C(=O)O)c2ccc(O)cc2)C(=O)N2C(C(=O)O)=C(CSc3nnnn3C)CO[C@@H]21 (some centres not stated) | 11
2 | N[C@@H](Cc1ccc(O)c(O)c1)C(=O)O | 13
3 | O=c1c(O)c(-c2ccc(O)cc2O)oc2cc(O)cc(O)c12 | 10
4 | O=C1C=CC(=O)c2c(O)cccc21 | 18
5 | O=c1c(O)cc2c(O)oc3c(=O)c(O)cc4c3c2c1CC=4O | 21
6 | NC[C@H](O)c1ccc(O)c(O)c1 | 29
7 | C=Cc1c(C)c2cc3[nH]c(cc4nc(cc5nc(cc1[nH]2)C(C)=C5CCC(=O)O)C(CCC(=O)O)=C4C)c(C)c3C=C | 14
